In US9133206B2, “Benzodiazepine and pyridodiazepine derivatives” (AbbVie Inc., priority 2010, dated 2015):

Test system: SK-N-SH human neuroblastoma cells
Experiment: Serum Deprivation/JC-1 Mitochondrial Membrane Potential (MMP) Assay
Assay type: cell-based
Settings: Homo sapiens; for EC50 / Emax: SK-N-SH; for EC50: 18 h, serum deprivation ~18 hours, JC-1 ratio normalized to peak value for 10 μM dimebolin, single curve fit to mean data of n=2-3; for Emax: percent maximal intensity in JC-1 ratio normalized to peak value for 10 μM dimebolin, read-out: JC-1 max %; for Emax / activation at 3 µM: serum deprivation; for activation at 3 µM: single dose 3 μM, JC-1 ratio normalized to peak value for 10 μM dimebolin (n=2-4), read-out: JC-1 max % (@ 3 μM)
Method in brief: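 SK-N-SH cells serum-deprived ~18 h with compound, then stained with JC-1 for 40 min at 37 °C; red (560/595 nm) to green (485/535 nm) ratio reports membrane potential. Response normalized to peak from 10 μM dimebolin; EC50 from fit to mean of n=2–3, or single-dose 3 μM; DMSO ≤1%.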

Structure (SMILES) | EC50 [µM] | Emax [%] | activation at 3 µM [%]
Cn1cccc1C(=O)N1Cc2ccccc2N2CCN(Cc3ccccc3)CC2C1 (centres unmarked) [Example 105, (3-benzyl-1,2,3,4,4a,5-hexahydropyrazino[1,2-a][1,4]benzodiazepin-6(7H)-yl)(1-methyl-1H-pyrrol-2-yl)methanone] | 2.52 | 197 | –
CCC(=O)N1Cc2ccccc2N2CCN(Cc3ccccc3)CC2C1 (centres unmarked) [Example 106, 1-(3-benzyl-1,2,3,4,4a,5-hexahydropyrazino[1,2-a][1,4]benzodiazepin-6(7H)-yl)propan-1-one] | – | – | 81
O=C(c1ccncc1)N1Cc2ccccc2N2CCN(Cc3ccccc3)CC2C1 (centres unmarked) [Example 107, (3-benzyl-1,2,3,4,4a,5-hexahydropyrazino[1,2-a][1,4]benzodiazepin-6(7H)-yl)(pyridin-4-yl)methanone] | 5.66 | 192 | –
CCCC(=O)N1Cc2ccccc2N2CCN(Cc3ccccc3)CC2C1 (centres unmarked) [Example 108, 1-(3-benzyl-1,2,3,4,4a,5-hexahydropyrazino[1,2-a][1,4]benzodiazepin-6(7H)-yl)butan-1-one] | 3.12 | 162 | –
O=C(C1CCOC1)N1Cc2ccccc2N2CCN(Cc3ccccc3)CC2C1 (centres unmarked) [Example 109, (3-benzyl-1,2,3,4,4a,5-hexahydropyrazino[1,2-a][1,4]benzodiazepin-6(7H)-yl)(tetrahydrofuran-3-yl)methanone] | – | – | 65
O=C(c1cccnc1)N1Cc2ccccc2N2CCN(Cc3ccccc3)CC2C1 (centres unmarked) [Example 110, (3-benzyl-1,2,3,4,4a,5-hexahydropyrazino[1,2-a][1,4]benzodiazepin-6(7H)-yl)(pyridin-3-yl)methanone] | – | – | 97
O=C(CCN1CCCCC1)N1Cc2ccccc2N2CCN(Cc3ccccc3)CC2C1 (centres unmarked) [Example 111, 1-(3-benzyl-1,2,3,4,4a,5-hexahydropyrazino[1,2-a][1,4]benzodiazepin-6(7H)-yl)-3-(piperidin-1-yl)propan-1-one] | – | – | 162
O=C(C1CC1)N1Cc2ccccc2N2CCN(Cc3ccccc3)CC2C1 (centres unmarked) [Example 112, (3-benzyl-1,2,3,4,4a,5-hexahydropyrazino[1,2-a][1,4]benzodiazepin-6(7H)-yl)(cyclopropyl)methanone] | 4.67 | 139 | –
CCOCC(=O)N1Cc2ccccc2N2CCN(Cc3ccccc3)CC2C1 (centres unmarked) [Example 113, 1-(3-benzyl-1,2,3,4,4a,5-hexahydropyrazino[1,2-a][1,4]benzodiazepin-6(7H)-yl)-2-ethoxyethanone] | – | – | 51
CC1(C(=O)N2Cc3ccccc3N3CCN(Cc4ccccc4)CC3C2)CC1 (centres unmarked) [Example 114, (3-benzyl-1,2,3,4,4a,5-hexahydropyrazino[1,2-a][1,4]benzodiazepin-6(7H)-yl)(1-methylcyclopropyl)methanone] | 4.36 | 201 | –
O=C(C1CCC1)N1Cc2ccccc2N2CCN(Cc3ccccc3)CC2C1 (centres unmarked) [Example 115, (3-benzyl-1,2,3,4,4a,5-hexahydropyrazino[1,2-a][1,4]benzodiazepin-6(7H)-yl)(cyclobutyl)methanone] | 1.25 | 177 | –
CC1CC1C(=O)N1Cc2ccccc2N2CCN(Cc3ccccc3)CC2C1 (centres unmarked) [Example 116, (3-benzyl-1,2,3,4,4a,5-hexahydropyrazino[1,2-a][1,4]benzodiazepin-6(7H)-yl)(2-methylcyclopropyl)methanone] | – | – | 198
O=C(CC(F)(F)F)N1Cc2ccccc2N2CCN(Cc3ccccc3)CC2C1 (centres unmarked) [Example 117, 1-(3-benzyl-1,2,3,4,4a,5-hexahydropyrazino[1,2-a][1,4]benzodiazepin-6(7H)-yl)-3,3,3-trifluoropropan-1-one] | – | – | 70
O=C(C1CCCO1)N1Cc2ccccc2N2CCN(Cc3ccccc3)CC2C1 (centres unmarked) [Example 118, (3-benzyl-1,2,3,4,4a,5-hexahydropyrazino[1,2-a][1,4]benzodiazepin-6(7H)-yl)(tetrahydrofuran-2-yl)methanone] | – | – | 84
